In patent publication US8394803B2, “Gyrase inhibitors and uses thereof” (Vertex Pharmaceuticals Incorporated, priority 2005, dated 2013):
Values after ≈ are worked out from the molar mass of the structure shown. Like-named read-outs stand apart in the source and are kept apart here.

Columns and labels:
S. aureus TopoIV = S. aureus TopoIV (Staphylococcus aureus, UniProt P0C1S7); assay: DNA Topo IV ATPase assay (S. aureus TopoIV Ki); format: biochemical; conditions: 30° C., read-out: S. aureus Topo IV Ki Inhibition Ranges (Activity)
Description: DNA Topo IV ATPase Assay:
The conversion of ATP to ADP by TopoIV enzyme was coupled to the conversion of NADH to NAD+ and measured by the change in absorbance at 340 nm. Topo4 was incubated with inhibitor (4% DMSO final) in buffer for 10 minutes at 30° C. Reaction was initiated with ATP and rates were monitored continuously for 20 minutes at 30° C. on a Molecular Devices SpectraMAX plate reader. The inhibition constant, Ki, was determined from plots of rate vs. [Inhibitor] fit to the Morrison Equation for tight binding inhibitors.
S. aureus TopoIV Buffer: 100 mM Tris 7.5, 2 mM MgCl2, 200 mM K●Glutamate, 2.5 mM phosphoenol pyruvate, 0.2 mM NADH, 1 mM DTT, 4.25 μg/mL linearized DNA, 50 μg/mL BSA, 30 μg/mL pyruvate kinase, and 10 μg/mL lactate dehyrodgenase (LDH).
The compound numbers correspond to the compound numbers in Table 2. Compounds having an activity designated as “A” provided a Ki inhibition value equal to or above 0.500 micromolar. […] The term “ND” means no data.

Staphylococcus aureus = assay: Susceptibility testing in liquid media (MIC), S. aureus; format: cell-based; conditions: 35° C. overnight, read-out: S. aureus MIC range
Description: (§1) Compounds of this invention were also tested for antimicrobial activity by susceptibility testing in liquid media. Such assays were performed within the guidelines of the latest NCCLS document governing such practices: “M7-A5 Methods for dilution Antimicrobial Susceptibility Tests for Bacteria that Grow Aerobically; Approved Standard—Fifth Edition (2000)”. Other publications such as “Antibiotics in Laboratory Medicine” (Edited by V. Lorian, Publishers Williams and Wilkins, 1996) provide essential practical techniques in laboratory antibiotic testing. Essentially, several discrete bacterial colonies of Staphylococcus aureus, Streptococcus pneumoniae, Haemophilus influenzae, or Enterococcus faecalis (3 to 7) from a freshly streaked plate were transferred to an appropriate rich broth medium such as MHB, and supplemented where appropriate for the more fastidious organisms. This was grown overnight to high density followed by a 1 or 2-thousand-fold dilution to give an inoculation density of between 5×10^5 and 5×10^6 CFU per mL. Alternatively, the freshly picked colonies can be incubated at 37° C. for about 4 to 8 hours until the culture equals or exceeds a turbidity of a 0.5 McFarland standard (approximately 1.5×10^8 cells per mL) and diluted to give the same CFU per mL as above. In a more convenient method, the inoculum was prepared using a commercially available mechanical device (the BBL PROMPT System) that involves touching five colonies directly with a wand, containing crosshatch grooves at its bottom, followed by suspension of the bacteria in an appropriate volume of saline. Dilution to the appropriate inoculum cell density was made from this cell suspension. The broth used for testing consists of MHB supplemented with 50 mg per L of Ca^2+ and 25 mg per L of Mg^2+. Standard dilution panels of control antibiotics were made and stored as in the NCCLS standard M7-A5, the dilution range typically being in the 128 μg per mL to […] (by 2-fold serial dilution). The test compounds were dissolved and diluted fresh for experimentation on the same day; the same or similar ranges of concentration as above being used. The test compounds and controls were dispensed into a multiwell plate and test bacteria added such that the final inoculation was approximately 5×10^4 CFU per well and the final volume was 100 μL. The plates were incubated at 35° C. overnight (16 to 20 hours) and checked by eye for turbidity or quantitated with a multiwell plate reader. […] Such determinations were also compared to the appropriate tables contained in the above two publications to ensure that the range of antibacterial activity is within the acceptable range for this standardized assay.
(§2) The compound numbers correspond to the compound numbers in Table 2.

E. coli Gyrase = E. coli Gyrase (Escherichia coli, UniProt P0AES6); assay: DNA Gyrase ATPase assay (E. coli Gyrase Ki); format: biochemical
Description: The ATP hydrolysis activity of DNA gyrase was measured by coupling the production of ADP through pyruvate kinase/lactate dehydrogenase to the oxidation of NADH. This method has been described previously (Tamura and Gellert, 1990, J. Biol. Chem., 265, 21342).
ATPase assays were carried out at 30° C. in buffered solutions containing 100 mM TRIS pH 7.6, 1.5 mM MgCl2, 150 mM KCl. The coupling system contains (final concentrations) 2.5 mM phosphoenol pyruvate, 200 μM nicotinamide adenine dinucleotide (NADH), 1 mM DTT, 30 ug/ml pyruvate kinase, and 10 ug/ml lactate dehydrogenase. 40 nanomolar enzyme and a DMSO solution of the inhibitor to a final concentration of 4% was added and the reaction mixture was allowed to incubate for 10 minutes at 30° C. The reaction was then started by the addition of ATP to a final concentration of 0.9 mM and the rate of NADH disappearance at 340 nanometers was measured over the course of 10 minutes. The Ki values were determined from rate versus concentration profiles.
The compound numbers correspond to the compound numbers in Table 2. Compounds having an activity designated as “A” provided a Ki inhibition value equal to or above 0.100 micromolar. Compounds having an activity designated as “B” provided a Ki inhibition value between 0.050 micromolar and 0.100 micromolar. […] The term “ND” means no data.

Streptococcus pneumoniae = assay: Susceptibility testing in liquid media (MIC), S. pneumoniae; format: cell-based; conditions: 35° C. overnight, read-out: S. pneumoniae MIC range
Description: as §1, §2

Haemophilus influenzae = assay: Susceptibility testing in liquid media (MIC), H. influenzae; format: cell-based; conditions: 35° C. overnight, read-out: H. influenzae MIC range
Description: as §1, §2

Enterococcus faecalis = assay: Susceptibility testing in liquid media (MIC), E. faecalis; format: cell-based; conditions: 35° C. overnight, read-out: E. faecalis MIC range
Description: as §1, §2

[1] = ATPase assay, 30° C., 0.9 mM ATP, read-out: E. coli Gyrase Ki Inhibition Ranges (Activity)

S. aureus TopoIV, sequence (P0C1S7 whole entry): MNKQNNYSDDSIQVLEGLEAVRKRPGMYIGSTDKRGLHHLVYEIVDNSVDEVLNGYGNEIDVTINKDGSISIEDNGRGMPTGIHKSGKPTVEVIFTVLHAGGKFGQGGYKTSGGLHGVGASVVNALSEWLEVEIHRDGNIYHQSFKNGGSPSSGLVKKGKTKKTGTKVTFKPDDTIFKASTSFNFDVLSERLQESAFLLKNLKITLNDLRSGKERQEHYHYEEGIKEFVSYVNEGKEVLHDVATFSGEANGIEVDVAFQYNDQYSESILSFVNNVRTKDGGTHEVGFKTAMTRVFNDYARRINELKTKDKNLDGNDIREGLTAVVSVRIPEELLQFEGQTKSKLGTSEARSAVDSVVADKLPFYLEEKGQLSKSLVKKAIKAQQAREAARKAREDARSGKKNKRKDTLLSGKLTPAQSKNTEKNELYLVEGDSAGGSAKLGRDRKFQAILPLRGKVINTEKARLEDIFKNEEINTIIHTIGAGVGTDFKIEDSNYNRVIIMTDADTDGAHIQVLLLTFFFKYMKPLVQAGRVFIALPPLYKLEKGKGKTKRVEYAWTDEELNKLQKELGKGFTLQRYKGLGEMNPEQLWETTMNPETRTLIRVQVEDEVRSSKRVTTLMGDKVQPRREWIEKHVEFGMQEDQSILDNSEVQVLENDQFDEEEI
S. aureus TopoIV, sequence (P0C1U9 whole entry partner): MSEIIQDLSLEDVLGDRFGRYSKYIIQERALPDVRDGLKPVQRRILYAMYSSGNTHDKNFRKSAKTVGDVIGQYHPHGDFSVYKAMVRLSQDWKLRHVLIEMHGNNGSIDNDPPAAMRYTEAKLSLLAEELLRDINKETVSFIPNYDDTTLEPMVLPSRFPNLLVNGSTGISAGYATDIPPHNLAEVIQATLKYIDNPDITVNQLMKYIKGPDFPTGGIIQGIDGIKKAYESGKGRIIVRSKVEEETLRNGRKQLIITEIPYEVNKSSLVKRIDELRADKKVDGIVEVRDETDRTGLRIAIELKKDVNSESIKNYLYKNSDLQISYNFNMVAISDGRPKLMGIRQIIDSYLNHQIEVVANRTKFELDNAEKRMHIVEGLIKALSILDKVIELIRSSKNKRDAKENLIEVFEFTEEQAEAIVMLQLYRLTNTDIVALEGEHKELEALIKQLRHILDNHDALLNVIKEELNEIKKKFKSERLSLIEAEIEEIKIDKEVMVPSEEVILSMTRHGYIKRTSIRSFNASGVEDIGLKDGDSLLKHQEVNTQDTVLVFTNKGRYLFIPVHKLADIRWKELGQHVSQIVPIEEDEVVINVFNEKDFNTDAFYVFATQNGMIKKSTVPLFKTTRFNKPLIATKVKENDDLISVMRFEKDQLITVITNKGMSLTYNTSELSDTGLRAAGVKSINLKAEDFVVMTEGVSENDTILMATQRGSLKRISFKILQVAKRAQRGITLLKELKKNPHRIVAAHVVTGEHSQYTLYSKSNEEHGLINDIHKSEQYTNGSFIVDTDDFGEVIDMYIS

Compound | Ki (S. aureus TopoIV) [µM] | MIC (Staphylococcus aureus) [mg/L] | Ki (E. coli Gyrase) [µM] | MIC (Streptococcus pneumoniae) [mg/L] | MIC (Haemophilus influenzae) [mg/L] | MIC (Enterococcus faecalis) [mg/L] | Ki (E. coli Gyrase; [1]) [µM]
CCNC(=O)Nc1nc2cc(NCc3ccccn3)cc(-c3ncccn3)c2[nH]1 [Compound I-14] | ≥ 0.5 | > 7 | 0.05 to 0.1 | < 1 | > 7 | 1 to 7 (≈ 2.57 to 18 µM) | –
CCNC(=O)Nc1nc2cc(/C(C)=C/C(=O)NC)cc(-c3ncccc3F)c2[nH]1 [Compound I-10] | ≤ 0.25 | > 7 | < 0.05 | < 1 | > 7 | < 1 | –
CCNC(=O)Nc1nc2cc(C(=O)OC)cc(-c3ncccc3F)c2[nH]1 [Compound I-7] | – | > 7 | – | 1 to 7 (≈ 2.8 to 19.6 µM) | > 7 | 1 to 7 (≈ 2.8 to 19.6 µM) | < 0.05
CCNC(=O)Nc1nc2cc(N3CCCC3=O)cc(-c3ncccn3)c2[nH]1 [Compound I-6] | – | > 7 | – | < 1 | > 7 | 1 to 7 (≈ 2.74 to 19.2 µM) | < 0.05
CCNC(=O)Nc1nc2cc(OC)cc(-n3cccn3)c2[nH]1 [Compound I-1] | – | > 7 | – | 1 to 7 (≈ 3.33 to 23.3 µM) | > 7 | > 7 | 0.05 to 0.1
CCNC(=O)Nc1nc2cc(C3CCN(Cc4ccccc4)C(=O)C3)cc(-n3cccn3)c2[nH]1 (centres unmarked) [Compound I-17] | ≤ 0.25 | 1 to 7 (≈ 2.19 to 15.3 µM) | > 0.1 | < 1 | > 7 | 1 to 7 (≈ 2.19 to 15.3 µM) | –
CCNC(=O)Nc1nc2cc(C#N)c(F)c(-n3cccn3)c2[nH]1 [Compound I-16] | ≥ 0.5 | > 7 | < 0.05 | 1 to 7 (≈ 3.19 to 22.3 µM) | > 7 | > 7 | –
CCNC(=O)Nc1nc2cc(/C(C)=C/C(=O)N(C)C)cc(-c3ncccc3F)c2[nH]1 [Compound I-8] | ≤ 0.25 | > 7 | 0.05 to 0.1 | < 1 | > 7 | 1 to 7 (≈ 2.44 to 17.1 µM) | –
CCNC(=O)Nc1nc2cc(C3CCN(C)C(=O)C3)cc(-c3ncccc3F)c2[nH]1 (centres unmarked) [Compound I-13] | ≤ 0.25 | 1 to 7 (≈ 2.44 to 17.1 µM) | < 0.05 | < 1 | > 7 | < 1 | –
CCNC(=O)Nc1nc2cc(C(=O)O)cc(-c3ncccc3F)c2[nH]1 [Compound I-2] | – | > 7 | – | > 7 | > 7 | > 7 | > 0.1
CCNC(=O)Nc1nc2cc(F)cc(-c3ncccn3)c2[nH]1 [Compound I-15] | ≥ 0.5 | > 7 | < 0.05 | 1 to 7 (≈ 3.33 to 23.3 µM) | > 7 | 1 to 7 (≈ 3.33 to 23.3 µM) | –
CCNC(=O)Nc1nc2cc(N3CCN(C(C)=O)CC3)cc(-c3ncccn3)c2[nH]1 [Compound I-5] | – | > 7 | – | < 1 | > 7 | 1 to 7 (≈ 2.45 to 17.1 µM) | < 0.05
CCNC(=O)Nc1nc2cc(C(C)CC(=O)N(C)C)cc(-c3ncccc3F)c2[nH]1 (centres unmarked) [Compound I-19] | ≥ 0.5 | > 7 | > 0.1 | 1 to 7 (≈ 2.42 to 17 µM) | > 7 | 1 to 7 (≈ 2.42 to 17 µM) | –
CCNC(=O)Nc1nc2cc(C3=CC(=O)N(Cc4ccccc4)CC3)cc(-n3cccn3)c2[nH]1 [Compound I-18] | ≤ 0.25 | < 1 | < 0.05 | < 1 | > 7 | < 1 | –
CCNC(=O)Nc1nc2cc(C#N)cc(-c3ncccc3F)c2[nH]1 [Compound I-4] | – | > 7 | – | < 1 | > 7 | 1 to 7 (≈ 3.08 to 21.6 µM) | 0.05 to 0.1
CCNC(=O)Nc1nc2cc(C(C)CC(=O)NC)cc(-c3ncccc3F)c2[nH]1 (centres unmarked) [Compound I-9] | ≥ 0.5 | > 7 | > 0.1 | 1 to 7 (≈ 2.51 to 17.6 µM) | > 7 | > 7 | –
CCNC(=O)Nc1nc2cc(C(=O)NC)cc(-c3ncccc3F)c2[nH]1 [Compound I-3] | – | > 7 | – | < 1 | > 7 | < 1 | < 0.05
